Laboratory results taken from the supplement of paper PMC11061612.

What was measured:
SN-38 = compound: CCc1c2c(nc3ccc(O)cc13)-c1cc3c(c(=O)n1C2)COC(=O)[C@]3(O)CC [SN-38]; settings: max 0.3 µM
How it was run: (§1)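 After 24 hours at 37°C and 5% CO2 in 1536-well plates holding 7.5 μl of DMEM/F12 or RPMI with 10% FBS, cancer cell lines were dosed for 72 hours, with final DMSO typically 0.2%. Viability came from CellTiter-Glo 2.0 luminescence, scaled between the means of blank wells and DMSO wells. A non-linear mixed effects model fitted a two-parameter logistic curve to each dose response to give the single-agent IC50.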

Taselisib = compound: Cc1nc(-c2cn3c(n2)-c2ccc(-c4cnn(C(C)(C)C(N)=O)c4)cc2OCC3)n(C(C)C)n1 [Taselisib]; settings: max 10 µM
How it was run: as §1

AZD5363 = compound: C1CN(CCC1(C(=O)N[C@@H](CCO)C2=CC=C(C=C2)Cl)N)C3=NC=NC4=C3C=CN4 [AZD5363]; settings: max 10 µM
How it was run: as §1

Alisertib = compound: COc1cc(Nc2ncc3c(n2)-c2ccc(Cl)cc2C(c2c(F)cccc2OC)=NC3)ccc1C(=O)O [Alisertib]; settings: max 10 µM
How it was run: as §1

AZD4320 = compound: CN(CC[C@H](CSC1=CC=CC=C1)NC2=C(C=C(C=C2)S(=O)(=O)NC(=O)C3=CC=C(C=C3)N4CCC(CC4)[C@H](C5=CC=CC=C5C6=CC=C(C=C6)Cl)O)S(=O)(=O)C(F)(F)F)CCO [AZD4320]; settings: max 1 µM
How it was run: as §1

AZD0156 = compound: CN(C)CCCOc1ccc(-c2ccc3ncc4c(c3c2)n(C2CCOCC2)c(=O)n4C)cn1 [AZD0156]; settings: max 3 µM
How it was run: as §1

SG3199 = compound: CC1=CN2[C@@H](C1)C=NC3=CC(=C(C=C3C2=O)OC)OCCCCCOC4=C(C=C5C(=C4)N=C[C@@H]6CC(=CN6C5=O)C)OC [SG3199]; settings: max 0.001 µM
How it was run: as §1

SRA737 = compound: N#Cc1cnc(Nc2cc(NC[C@H]3CNCCO3)c(C(F)(F)F)cn2)cn1 [SRA737]; settings: max 10 µM
How it was run: as §1

Olaparib = compound: O=C(c1cc(Cc2n[nH]c(=O)c3ccccc23)ccc1F)N1CCN(C(=O)C2CC2)CC1 [Olaparib]; settings: max 10 µM
How it was run: as §1

AZD8186 = compound: C[C@@H](Nc1cc(F)cc(F)c1)c1cc(C(=O)N(C)C)cc2c(=O)cc(N3CCOCC3)oc12 [AZD8186]; settings: max 10 µM
How it was run: as §1

AZD1775 = compound: C=CCn1c(=O)c2cnc(Nc3ccc(N4CCN(C)CC4)cc3)nc2n1-c1cccc(C(C)(C)O)n1 [AZD1775]; settings: max 3 µM
How it was run: as §1

Venetoclax = compound: CC1(C)CCC(CN2CCN(c3ccc(C(=O)NS(=O)(=O)c4ccc(NCC5CCOCC5)c([N+](=O)[O-])c4)c(Oc4cnc5[nH]ccc5c4)c3)CC2)=C(c2ccc(Cl)cc2)C1 [Venetoclax]; settings: max 1 µM
How it was run: as §1

AZD2811 = compound: CCN(CCO)CCCOc1ccc2c(Nc3cc(CC(=O)Nc4cccc(F)c4)[nH]n3)ncnc2c1 [AZD2811]; settings: max 1 µM
How it was run: as §1

Gemcitabine = compound: Nc1ccn([C@@H]2O[C@H](CO)[C@@H](O)C2(F)F)c(=O)n1 [Gemcitabine]; settings: max 0.3 µM
How it was run: as §1

MK-2206 = compound: NC1(c2ccc(-c3nc4ccn5c(=O)[nH]nc5c4cc3-c3ccccc3)cc2)CCC1 [MK-2206]; settings: max 10 µM
How it was run: as §1

Savolitinib = compound: C[C@@H](c1ccc2nccn2c1)n1nnc2ncc(-c3cnn(C)c3)nc21 [Savolitinib]; settings: max 1 µM
How it was run: as §1

AZD5991 = compound: Cc1c2c(nn1C)CSCc1cc(n(C)n1)CSc1cc(c3ccccc3c1)OCCCc1c(C(=O)O)n(C)c3c-2c(Cl)ccc13 [AZD5991]; settings: max 1 µM
How it was run: as §1

5-Fluorouracil = compound: O=c1[nH]cc(F)c(=O)[nH]1 [5-Fluorouracil]; settings: max 20 µM
How it was run: as §1

Etoposide = compound: COc1cc([C@@H]2c3cc4c(cc3[C@@H](O[C@@H]3O[C@@H]5CO[C@@H](C)O[C@H]5[C@H](O)[C@H]3O)[C@H]3COC(=O)[C@H]23)OCO4)cc(OC)c1O [Etoposide]; settings: max 10 µM
How it was run: as §1

Lapatinib = compound: CS(=O)(=O)CCNCc1ccc(-c2ccc3ncnc(Nc4ccc(OCc5cccc(F)c5)c(Cl)c4)c3c2)o1 [Lapatinib]; settings: max 10 µM
How it was run: as §1

Carboplatin = compound: C1CC(C1)(C(=O)[O-])C(=O)[O-].N.N.[Pt+2] [Carboplatin]; settings: max 10 µM
How it was run: as §1

Gefitinib = compound: COc1cc2ncnc(Nc3ccc(F)c(Cl)c3)c2cc1OCCCN1CCOCC1 [Gefitinib]; settings: max 10 µM
How it was run: as §1

AZD5153 = compound: COc1nnc2ccc(N3CCC(c4ccc(OCCN5CCN(C)C(=O)[C@H]5C)cc4)CC3)nn12 [AZD5153]; settings: max 1 µM
How it was run: as §1

Palbociclib = compound: CC(=O)c1c(C)c2cnc(Nc3ccc(N4CCNCC4)cn3)nc2n(C2CCCC2)c1=O [Palbociclib]; settings: max 10 µM
How it was run: as §1

AZD7648 = compound: Cc1cc2ncnn2cc1Nc1ncc2c(n1)n(C1CCOCC1)c(=O)n2C [AZD7648]; settings: max 10 µM
How it was run: as §1

[1] = compound: O=C(Nc1ccc2[nH]nc(-c3ccncc3)c2c1)[C@@H]1CCN(CC(=O)N2CCN(c3ccc(-c4ncccn4)cc3)CC2)C1; settings: max 5 µM
How it was run: as §1

Doxorubicin = compound: COc1cccc2c1C(=O)c1c(O)c3c(c(O)c1C2=O)C[C@@](O)(C(=O)CO)C[C@@H]3O[C@H]1C[C@H](N)[C@H](O)[C@H](C)O1 [Doxorubicin]; settings: max 1 µM
How it was run: as §1

Dasatinib = compound: CC1=C(C(=CC=C1)Cl)NC(=O)C2=CN=C(S2)NC3=CC(=NC(=N3)C)N4CCN(CC4)CCO [Dasatinib]; settings: max 2 µM
How it was run: as §1

AZD6738 = compound: C[C@@H]1COCCN1C2=NC(=NC(=C2)C3(CC3)[S@](=N)(=O)C)C4=C5C=CNC5=NC=C4 [AZD6738]; settings: max 10 µM
How it was run: as §1

Crizotinib = compound: C[C@@H](Oc1cc(-c2cnn(C3CCNCC3)c2)cnc1N)c1c(Cl)ccc(F)c1Cl [Crizotinib]; settings: max 10 µM
How it was run: as §1

Prexasertib = compound: COc1cccc(OCCCN)c1-c1cc(Nc2cnc(C#N)cn2)n[nH]1 [Prexasertib]; settings: max 1 µM
How it was run: as §1

Selumetinib = compound: Cn1cnc2c(F)c(Nc3ccc(Br)cc3Cl)c(C(=O)NOCCO)cc21 [Selumetinib]; settings: max 10 µM
How it was run: as §1

Trametinib = compound: CC(=O)Nc1cccc(-n2c(=O)n(C3CC3)c(=O)c3c(Nc4ccc(I)cc4F)n(C)c(=O)c(C)c32)c1 [Trametinib]; settings: max 1 µM
How it was run: as §1

Paclitaxel = compound: CC(=O)O[C@H]1C(=O)[C@@]2(C)[C@H]([C@H](OC(=O)c3ccccc3)[C@]3(O)C[C@H](OC(=O)[C@H](O)[C@@H](NC(=O)c4ccccc4)c4ccccc4)C(C)=C1C3(C)C)[C@]1(OC(C)=O)CO[C@@H]1C[C@@H]2O [Paclitaxel]; settings: max 3 µM
How it was run: as §1

AZD1390 = compound: CC(C)n1c(=O)n(C)c2cnc3cc(F)c(-c4ccc(OCCCN5CCCCC5)nc4)cc3c21 [AZD1390]; settings: max 0.3 µM
How it was run: as §1

## MN-60 (B-Lymphoblastic Leukemia)
SN-38
  IC50, cell viability 72 h: 14.6 nM
Taselisib
  IC50, cell viability 72 h: > 10000 nM
AZD5363
  IC50, cell viability 72 h: > 10000 nM
Alisertib
  IC50, cell viability 72 h: > 10000 nM
AZD4320
  IC50, cell viability 72 h: > 1000 nM
AZD0156
  IC50, cell viability 72 h: > 3000 nM
SG3199
  IC50, cell viability 72 h: > 1 nM
SRA737
  IC50, cell viability 72 h: > 10000 nM
Olaparib
  IC50, cell viability 72 h: > 10000 nM
AZD8186
  IC50, cell viability 72 h: > 10000 nM
AZD1775
  IC50, cell viability 72 h: > 3000 nM
Venetoclax
  IC50, cell viability 72 h: > 1000 nM
AZD2811
  IC50, cell viability 72 h: > 1000 nM
Gemcitabine
  IC50, cell viability 72 h: 213 nM
MK-2206
  IC50, cell viability 72 h: > 10000 nM
Savolitinib
  IC50, cell viability 72 h: > 1000 nM
AZD5991
  IC50, cell viability 72 h: > 1000 nM
5-Fluorouracil
  IC50, cell viability 72 h: > 20000 nM
Etoposide
  IC50, cell viability 72 h: > 10000 nM
Lapatinib
  IC50, cell viability 72 h: > 10000 nM
Carboplatin
  IC50, cell viability 72 h: > 10000 nM
Gefitinib
  IC50, cell viability 72 h: > 10000 nM
AZD5153
  IC50, cell viability 72 h: 111 nM
Palbociclib
  IC50, cell viability 72 h: > 10000 nM
AZD7648
  IC50, cell viability 72 h: > 10000 nM
[1]
  IC50, cell viability 72 h: > 5000 nM
Doxorubicin
  IC50, cell viability 72 h: > 1000 nM
Dasatinib
  IC50, cell viability 72 h: > 2000 nM
AZD6738
  IC50, cell viability 72 h: > 10000 nM
Crizotinib
  IC50, cell viability 72 h: > 10000 nM
Prexasertib
  IC50, cell viability 72 h: > 1000 nM
Selumetinib
  IC50, cell viability 72 h: > 10000 nM
Trametinib
  IC50, cell viability 72 h: > 1000 nM
Paclitaxel
  IC50, cell viability 72 h: 674 nM
AZD1390
  IC50, cell viability 72 h: > 300 nM

## MOG-G-CCM (Low Grade Glioma)
SN-38
  IC50, cell viability 72 h: 293 nM
Taselisib
  IC50, cell viability 72 h: 8270 nM
AZD5363
  IC50, cell viability 72 h: > 10000 nM
Alisertib
  IC50, cell viability 72 h: 1930 nM
AZD4320
  IC50, cell viability 72 h: > 1000 nM
AZD0156
  IC50, cell viability 72 h: > 3000 nM
SG3199
  IC50, cell viability 72 h: > 1 nM
SRA737
  IC50, cell viability 72 h: > 10000 nM
Olaparib
  IC50, cell viability 72 h: > 10000 nM
AZD8186
  IC50, cell viability 72 h: 4390 nM
AZD1775
  IC50, cell viability 72 h: > 3000 nM
Venetoclax
  IC50, cell viability 72 h: > 1000 nM
AZD2811
  IC50, cell viability 72 h: > 1000 nM
Gemcitabine
  IC50, cell viability 72 h: > 300 nM
MK-2206
  IC50, cell viability 72 h: > 10000 nM
Savolitinib
  IC50, cell viability 72 h: > 1000 nM
AZD5991
  IC50, cell viability 72 h: > 1000 nM
5-Fluorouracil
  IC50, cell viability 72 h: > 20000 nM
Etoposide
  IC50, cell viability 72 h: > 10000 nM
Lapatinib
  IC50, cell viability 72 h: > 10000 nM
Carboplatin
  IC50, cell viability 72 h: > 10000 nM
Gefitinib
  IC50, cell viability 72 h: > 10000 nM
AZD5153
  IC50, cell viability 72 h: 449 nM
Palbociclib
  IC50, cell viability 72 h: > 10000 nM
AZD7648
  IC50, cell viability 72 h: > 10000 nM
[1]
  IC50, cell viability 72 h: > 5000 nM
Doxorubicin
  IC50, cell viability 72 h: > 1000 nM
Dasatinib
  IC50, cell viability 72 h: 354 nM
AZD6738
  IC50, cell viability 72 h: > 10000 nM
Crizotinib
  IC50, cell viability 72 h: > 10000 nM
Prexasertib
  IC50, cell viability 72 h: 157 nM
Selumetinib
  IC50, cell viability 72 h: > 10000 nM
Trametinib
  IC50, cell viability 72 h: > 1000 nM
Paclitaxel
  IC50, cell viability 72 h: 4.97 nM
AZD1390
  IC50, cell viability 72 h: > 300 nM
